# In US9284283B2, “Macrocyclic compounds for modulating IL-17” (ENSEMBLE THERAPEUTICS CORPORATION, priority 2012, dated 2016):
# Molecular target: T1, biotinylated human IL-17 (binding to IL17R/Fc) (Homo sapiens, UniProt Q16552)
# T1 construct: purchased R&D Systems 317-ILB (IL-17, biotinylated); 177-IR (IL17R/Fc)
# T1 sequence (Q16552 20-155 limits assumed): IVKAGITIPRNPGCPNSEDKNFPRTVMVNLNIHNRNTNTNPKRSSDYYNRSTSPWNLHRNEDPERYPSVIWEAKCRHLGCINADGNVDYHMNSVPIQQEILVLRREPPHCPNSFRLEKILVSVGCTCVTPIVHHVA
# Experiment: IL-17 competition ELISA II (captured IL17R/Fc, biotinylated IL-17)
# How it was run: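 Anti-human IgG-coated plates captured IL17R/Fc (10 nM), then compound (5-fold dilutions from 1 μM) and biotinylated human IL-17 (20 nM stock) were added for 30 min at room temperature in PBST. Bound IL-17 detected by streptavidin-HRP/TMB at 450 nm. IC50 from 4-parameter logistic fit between no-competitor and blank controls.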
row,IC50,Structure (SMILES)
1,< 100 nM,O=C1CC2(CCCC2)CC(=O)N[C@H](Cc2ccc(NC(=O)[C@H](Cc3ccccc3Cl)NC(=O)Cc3ccccc3)cc2)C(=O)NCCCCCCCCN1 [Compound 259]
2,100 to 1000 nM,O=C1CC2(CCCC2)CC(=O)N[C@H](Cc2ccc(NC(=O)[C@@H](NC(=O)Cc3ccc(CO)cc3)C3CCCCC3)cc2)C(=O)NCCOCCOCCN1 [Compound 344]
3,< 100 nM,O=C1CC2(CCCC2)CC(=O)N[C@H](Cc2ccc(NC(=O)[C@H](Cc3ccccc3Cl)NC(=O)Cc3ccc(CO)cc3)cc2)C(=O)NCCCCCCCCCN1 [Compound 358]
4,< 100 nM,O=C1CC2(CCCC2)CC(=O)N[C@H](Cc2ccc(NC(=O)[C@H](Cc3ccccc3Cl)NC(=O)Cc3ccccc3)cc2)C(=O)NCCOCCOCCN1 [Compound 292]
5,< 100 nM,C[C@H]1NC(=O)[C@@H](Cc2ccc(NC(=O)[C@@H](NC(=O)Cc3ccc(CO)cc3)C3CCCCC3)cc2)NC(=O)CC2(CCCC2)CC(=O)NCCCCCNC1=O [Compound 360]
6,< 100 nM,O=C1CNC(=O)[C@@H](Cc2ccc(NC(=O)[C@@H](NC(=O)c3cccc(O)c3)C3CCCCC3)cc2)NC(=O)CC2(CCCC2)CC(=O)NCCCCCN1 [Compound 376]
7,< 100 nM,O=C1CNC(=O)[C@@H](Cc2ccc(NC(=O)[C@@H](NC(=O)Cc3ccc(F)c(F)c3)C3CCCCC3)cc2)NC(=O)CC2(CCCC2)CC(=O)NCCCCCN1 [Compound 373]
8,< 100 nM,O=C1CNC(=O)[C@@H](Cc2ccc(NC(=O)[C@@H](NC(=O)Cc3ccc(CO)cc3)C3CCCCC3)cc2)NC(=O)CC2(CCCC2)CC(=O)NCCCCCN1 [Compound 375]
9,100 to 1000 nM,O=C1CC2(CCCC2)CC(=O)N[C@H](Cc2ccc(NC(=O)[C@@H](NC(=O)Cc3ccccc3)C3CCCCC3)cc2)C(=O)NCCCCCCCN1 [Compound 348]
10,< 100 nM,O=C1CC2(CCCC2)CC(=O)N[C@H](Cc2ccc(NC(=O)[C@@H](NC(=O)Cc3ccccc3)C3CCCCC3)cc2)C(=O)NCCCCCCN1 [Compound 346]
11,100 to 1000 nM,CC(=O)N[C@H](C(=O)Nc1ccc(C[C@H]2NC(=O)CC3(CCCC3)CC(=O)NCCCCCNC(=O)CNC2=O)cc1)C1CCCCC1 [Compound 377]

# Molecular target: T2, recombinant human IL17a (binding to its receptor IL17R) (Homo sapiens, UniProt Q16552)
# T2 construct: purchased R&D Systems 317-ILB (IL17a); 177-IR (IL17R/Fc)
# T2 sequence (Q16552 20-155 limits assumed): T1 sequence (Q16552 20-155 limits assumed)
# Experiment: IL-17 competition ELISA I (IL17a coated, IL17R/Fc binding)
# Procedure: ELISA I: The ability of the compounds to block binding of IL17a to its receptor, IL17R, was analyzed in a competition ELISA format. High binding 96-well plates (Costar #9018) were coated with 20 nM of recombinant human IL17a (R&D Systems #317-ILB) in PBS (0.64 μg/mL), 100 μL/well, for 30 min at 37′C followed by 5 min at 4′C. Plates were then washed in PBST (PBS/0.05% Tween-20) on a plate washer, (Biotech EL-450) blocked with protein-free blocking buffer (Thermo Scientific #37573) in 250 μL/well for 30 min on shaker at room temperature, and then washed again. Compound dilutions prepared in PBST were added into the wells in duplicates followed by the addition of IL17R/Fc (R&D Systems #177-IR) at a final concentration of 12 nM. Plates were then incubated for 30 min at room temperature on the shaker. Wells with no compound served as a positive “no competitor” control, while wells with no IL17R/Fc and no compound served as a blank negative control. After an additional PBST wash, 50 ng/mL HRP-conjugated goat anti-human Fc IgG (KPL #04-10-20) was added to the plate for 30 min at room temperature, followed by PBST wash and addition of SureBlue™ TMB (KPL #52-00-03). After the sufficient color development, the reaction was fixed by the addition of 100 μL/well 0.5 N HCl and absorbance was measured at 450 nm on Biotek plate reader.
# Data were processed using BioAssay Enterprise v10.1.4 (CambridgeSoft) software. Linear OD λ450 were plotted against log concentration (x) and fitted to a 4-parameter logistic equation. IC50 was calculated using positive ‘no competitor’ control data as an upper limit and blank control as a lower limit in each assay.
row,IC50,Structure (SMILES)
1,100 to 1000 nM,O=C1CC2(CCCC2)CC(=O)N[C@H](Cc2ccc(NC(=O)[C@H](Cc3ccccc3Cl)NC(=O)Cc3ccccc3)cc2)C(=O)NCCCCCCCCN1 [Compound 259]
2,1000 to 10000 nM,O=C1CC2(CCCC2)CC(=O)N[C@H](Cc2ccc(NC(=O)[C@@H](NC(=O)Cc3ccc(CO)cc3)C3CCCCC3)cc2)C(=O)NCCOCCOCCN1 [Compound 344]
3,100 to 1000 nM,O=C1CC2(CCCC2)CC(=O)N[C@H](Cc2ccc(NC(=O)[C@H](Cc3ccccc3Cl)NC(=O)Cc3ccc(CO)cc3)cc2)C(=O)NCCCCCCCCCN1 [Compound 358]
4,100 to 1000 nM,O=C1CC2(CCCC2)CC(=O)N[C@H](Cc2ccc(NC(=O)[C@H](Cc3ccccc3Cl)NC(=O)Cc3ccccc3)cc2)C(=O)NCCOCCOCCN1 [Compound 292]
5,100 to 1000 nM,C[C@H]1NC(=O)[C@@H](Cc2ccc(NC(=O)[C@@H](NC(=O)Cc3ccc(CO)cc3)C3CCCCC3)cc2)NC(=O)CC2(CCCC2)CC(=O)NCCCCCNC1=O [Compound 360]
6,100 to 1000 nM,O=C1CNC(=O)[C@@H](Cc2ccc(NC(=O)[C@@H](NC(=O)c3cccc(O)c3)C3CCCCC3)cc2)NC(=O)CC2(CCCC2)CC(=O)NCCCCCN1 [Compound 376]
7,< 100 nM,O=C1CNC(=O)[C@@H](Cc2ccc(NC(=O)[C@@H](NC(=O)Cc3ccc(F)c(F)c3)C3CCCCC3)cc2)NC(=O)CC2(CCCC2)CC(=O)NCCCCCN1 [Compound 373]
8,100 to 1000 nM,O=C1CNC(=O)[C@@H](Cc2ccc(NC(=O)[C@@H](NC(=O)Cc3ccc(CO)cc3)C3CCCCC3)cc2)NC(=O)CC2(CCCC2)CC(=O)NCCCCCN1 [Compound 375]
9,1000 to 10000 nM,O=C1CC2(CCCC2)CC(=O)N[C@H](Cc2ccc(NC(=O)[C@@H](NC(=O)Cc3ccccc3)C3CCCCC3)cc2)C(=O)NCCCCCCCN1 [Compound 348]
10,1000 to 10000 nM,O=C1CC2(CCCC2)CC(=O)N[C@H](Cc2ccc(NC(=O)[C@@H](NC(=O)Cc3ccccc3)C3CCCCC3)cc2)C(=O)NCCCCCCN1 [Compound 346]
11,< 100 nM,CC(=O)N[C@H](C(=O)Nc1ccc(C[C@H]2NC(=O)CC3(CCCC3)CC(=O)NCCCCCNC(=O)CNC2=O)cc1)C1CCCCC1 [Compound 377]
12,< 100 nM,O=C1CNC(=O)[C@@H](Cc2ccc(NC(=O)[C@H](Cc3ccsc3)NC(=O)Cc3ccccc3)cc2)NC(=O)CC2(CCCC2)CC(=O)NCCCCCN1 [Compound 229]
13,100 to 1000 nM,O=C1CCCCCNC(=O)CNC(=O)[C@@H](Cc2ccc(NC(=O)[C@H](Cc3ccccc3Cl)NC(=O)Cc3ccccc3)cc2)NC(=O)CC2(CCCCC2)CN1 [Compound 286]
14,100 to 1000 nM,CN1CCCCCNC(=O)CC2(CCCC2)CC(=O)N[C@H](Cc2ccc(NC(=O)[C@H](Cc3ccccc3Cl)NC(=O)c3ccc(F)cc3)cc2)C(=O)NCC1=O [Compound 308]
15,100 to 1000 nM,O=C1CC2(CCCC2)CC(=O)N[C@H](Cc2ccc(NC(=O)[C@H](Cc3ccccc3Cl)NC(=O)Cc3ccccc3)cc2)C(=O)N[C@@H](CO)C(=O)NCCCCCN1 [Compound 319]
16,< 100 nM,O=C1CNC(=O)C(Cc2ccc(NC(=O)C(Cc3cccc(Cl)c3)NC(=O)Cc3ccccc3)cc2)NC(=O)CC2(CCCC2)CC(=O)NCCCCCN1 (centres unmarked) [Compound 239]
17,1000 to 10000 nM,CC1(C)CC(=O)NCCCCCNC(=O)CNC(=O)[C@@H](Cc2ccc(NC(=O)[C@H](Cc3cccs3)NC(=O)Cc3ccccc3)cc2)NC(=O)C1 [Compound 255]
18,< 100 nM,O=C1CNC(=O)[C@@H](Cc2ccc(NC(=O)[C@H](CC3CCCCC3)NC(=O)Cc3ccc(O)cc3)cc2)NC(=O)CC2(CCCC2)CC(=O)NCCCCCN1 [Compound 294]

row,IC50,Structure (SMILES)
1,100 to 1000 nM,O=C1CNC(=O)[C@@H](Cc2ccc(NC(=O)[C@H](Cc3ccccc3Cl)NC(=O)Cc3ccccc3)cc2)NC(=O)CC2(CCCC2)CC(=O)NCCCCCOC(=O)CN1 [Compound 322]
2,1000 to 10000 nM,O=C1CNC(=O)[C@@H](Cc2ccc(NC(=O)[C@H](NC(=O)Cc3ccccc3)C3CCCCC3)cc2)NC(=O)CC2(CCCC2)CC(=O)NCCCCCN1 [Compound 315]
3,100 to 1000 nM,CN(C)CC(=O)N[C@@H](Cc1ccccc1Cl)C(=O)Nc1ccc(C[C@H]2NC(=O)CC3(CCCC3)CC(=O)NCCCCCNC(=O)CNC2=O)cc1 [Compound 303]
4,1000 to 10000 nM,CC(=O)N[C@H](C(=O)Nc1ccc(C[C@H]2NC(=O)CC(C)(C)CC(=O)NCCCCCNC(=O)CNC2=O)cc1)C1CCCCC1 [Compound 252]
5,100 to 1000 nM,O=C1CNC(=O)[C@@H](Cc2ccc(NC(=O)[C@H](Cc3ccccc3Cl)NS(=O)(=O)Cc3ccccc3)cc2)NC(=O)CC2(CCCC2)CC(=O)NCCCCCN1 [Compound 272]
6,< 100 nM,O=C1CNC(=O)[C@@H](Cc2ccc(NC(=O)[C@H](Cc3ccccc3Cl)NC(=O)Cc3ccc(O)cc3)cc2)NC(=O)CC2(CCCC2)CC(=O)N[C@H](C(=O)O)CCCCN1 [Compound 265]
7,1000 to 10000 nM,O=C1CNC(=O)[C@@H](Cc2ccc(NC(=O)[C@H](Cc3ccccc3Cl)NS(=O)(=O)c3ccccc3)cc2)NC(=O)CC2(CCCC2)CC(=O)NCCCCCN1 [Compound 271]
8,100 to 1000 nM,CN1CCNC(=O)CNC(=O)[C@@H](Cc2ccc(NC(=O)[C@H](Cc3ccccc3Cl)NC(=O)Cc3ccccc3)cc2)NC(=O)CC2(CCCC2)CC(=O)NCC1 [Compound 323]
9,100 to 1000 nM,CC1(C)CC(=O)NCCCCCNC(=O)CNC(=O)[C@@H](Cc2ccc(NC(=O)[C@H](Cc3cccs3)NC(=O)Cc3ccc(O)cc3)cc2)NC(=O)C1 [Compound 257]
10,100 to 1000 nM,CC1(C)CC(=O)NCCCCCNC(=O)CNC(=O)[C@@H](Cc2ccc(NC(=O)[C@H](CC3CCC3)NC(=O)Cc3ccccc3)cc2)NC(=O)C1 [Compound 247]
11,1000 to 10000 nM,O=C1CNC(=O)[C@@H](Cc2ccc(NC(=O)[C@H](Cc3ccccc3Cl)NC(=O)c3ccc(F)cc3O)cc2)NC(=O)CC2(CCCC2)CC(=O)NCCCCCN1 [Compound 278]
12,100 to 1000 nM,CN1CCCCCNC(=O)CNC(=O)[C@@H](Cc2ccc(NC(=O)[C@@H](NC(=O)Cc3ccc(CO)cc3)C3CCCCC3)cc2)NC(=O)CC2(CCCC2)CC1=O [Compound 343]
13,< 100 nM,O=C1CNC(=O)[C@@H](Cc2ccc(NC(=O)[C@H](Cc3ccc(Cl)cc3)NC(=O)Cc3ccccc3)cc2)NC(=O)CC2(CCCC2)CC(=O)NCCCCCN1 [Compound 240]
14,> 10000 nM,CC(=O)N[C@@H](Cc1cccs1)C(=O)Nc1ccc(C[C@H]2NC(=O)CC(C)(C)CC(=O)NCCCCCNC(=O)CNC2=O)cc1 [Compound 256]
15,< 100 nM,COC(=O)[C@@H]1CCCCNC(=O)CC2(CCCC2)CC(=O)N[C@H](Cc2ccc(NC(=O)[C@H](Cc3ccccc3Cl)NC(=O)Cc3ccccc3)cc2)C(=O)NCC(=O)N1 [Compound 285]
16,< 100 nM,O=C1CNC(=O)[C@@H](Cc2ccc(NC(=O)[C@H](Cc3ccccc3Cl)NC(=O)c3cncnc3)cc2)NC(=O)CC2(CCCC2)CC(=O)NCCCCCN1 [Compound 327]
17,< 100 nM,COC(=O)[C@@H]1CCCCNC(=O)CNC(=O)[C@@H](Cc2ccc(NC(=O)[C@H](Cc3ccccc3Cl)NC(=O)Cc3ccc(O)cc3)cc2)NC(=O)CC2(CCCC2)CC(=O)N1 [Compound 249]
18,100 to 1000 nM,CN1CCCCCNC(=O)CC2(CCCC2)CC(=O)N[C@H](Cc2ccc(NC(=O)[C@@H](NC(=O)Cc3ccc(CO)cc3)C3CCCCC3)cc2)C(=O)NCC1=O [Compound 351]
